Measured values from the C3SDB collision cross section collection.
“And” between values parts separate entries of the source, which are not always exact repeats. Identical values can stand only once.

Key:
[1] = instrument: TW, calibrated with polyalanine
[2] = instrument: DT, single field, calibrated with Agilent tune mix (Agilent)
[3] = instrument: DT, stepped-field
[4] = instrument: TW, calibrated with phosphatidylcholines (ESI+) and phosphatidylethanolamines (ESI-)
[5] = [M+H]+; instrument: DT; stepped-field
[6] = instrument: DT, single field
[7] = instrument: DT, stepped-field; remark: listed apart in the source
[8] = [M-H]-; instrument: TW; calibrated with phosphatidylcholines (ESI+) and phosphatidylethanolamines (ESI-)

CC(=O)O[C@@H]1C[C@]2(C)[C@@]3(CO)[C@H](O)C(=O)C(C)=C[C@H]3O[C@H]1[C@@]21CO1 [3-Acetyldeoxynivalenol]
collision cross section (N2) ([1]; [M+H3C2O2]-): 196 Å²

CC(=O)OC[C@]12[C@H](O)C(=O)C(C)=C[C@H]1O[C@@H]1[C@H](O)C[C@@]2(C)[C@]12CO2 [15-Acetyldeoxynivalenol]
collision cross section (N2) ([1]; [M+H3C2O2]-): 196 Å²

COc1cc2c(c3oc(=O)c4c(c13)CCC4=O)[C@@H]1C=CO[C@@H]1O2 [Aflatoxin B1]
collision cross section (N2) ([1]; [M+H]+): 161 Å² | collision cross section (N2) ([1]; [M+K]+): 177.1 Å² | collision cross section (N2) ([1]; [M+Na]+): 164 Å²

COc1cc2c(c3oc(=O)c4c(c13)CCOC4=O)C1C=COC1O2 (configuration not stated) [Aflatoxin G1]
collision cross section (N2) ([1]; [M+H]+): 164 Å² | collision cross section (N2) ([1]; [M+K]+): 180.2 Å² | collision cross section (N2) ([1]; [M+Na]+): 176.5 Å²

COc1cc2c(c3oc(=O)c4c(c13)CCC4=O)[C@]1(O)C=CO[C@@H]1O2 [Aflatoxin M1]
collision cross section (N2) ([1]; [M+H]+): 166 Å² | collision cross section (N2) ([1]; [M+K]+): 177.8 Å² | collision cross section (N2) ([1]; [M+Na]+): 179.5 Å²

CC1=C2C(=CO[C@H](C)[C@H]2C)C(=O)C(C(=O)O)=C1O [Citrinin]
collision cross section (N2) ([1]; [M+H]+): 148 Å²

CC(=O)C1=C(O)[C@@H]2[C@H]3c4c[nH]c5cccc(c45)C[C@H]3C(C)(C)N2C1=O [Cyclopiazonic acid]
collision cross section (N2) ([1]; [M-H]-): 174 Å²

CCCCCCCC/C=C\CCCCCCCC(=O)OC[C@@H](O)COP(=O)([O-])OCC[N+](C)(C)C [LPC(18:1)]
collision cross section (N2) ([2]; [M+HCOO]-): 238.6 Å² | collision cross section (N2) ([2]; [M+Na]+): 236.1 Å² | collision cross section (N2) ([3]; [M+H]+): 236.2 Å² | collision cross section (N2) ([4]; [M+H]+): 230.8 Å² | collision cross section (N2) [5]: 235.59 Å² and 236.1 Å²

CCCCCC/C=C\CCCCCCCCCC(=O)OC[C@H](COP(=O)([O-])OCC[N+](C)(C)C)OC(=O)CCCCCCC/C=C\CCCCCC [PC(34:2)]
collision cross section (N2) ([6]; [M+H]+): 282.64 Å² and 284.2 Å² | collision cross section (N2) ([2]; [M+HCOO]-): 285.5 Å² | collision cross section (N2) ([2]; [M+H]+): 285.2 Å² | collision cross section (N2) ([2]; [M+Na]+): 289.4 Å² | collision cross section (N2) ([7]; [M+K]+): 291.3 Å² | collision cross section (N2) ([3]; [M+H]+): 302.6 Å² | collision cross section (N2) ([4]; [M+CH3COO]-): 287.7 Å² | collision cross section (N2) ([4]; [M+H]+): 281.7 Å²

CCCCCCCC/C=C\CCCCCCCCCCCC(=O)OC[C@H](COP(=O)([O-])OCC[N+](C)(C)C)OC(=O)CCCCCCCCCCCCC [PC(36:1)]
collision cross section (N2) ([6]; [M+H]+): 292.57 Å² | collision cross section (N2) ([6]; [M+Na]+): 294 Å² | collision cross section (N2) ([2]; [M+HCOO]-): 292.3 Å² | collision cross section (N2) ([2]; [M+H]+): 293.9 Å² | collision cross section (N2) ([2]; [M+Na]+): 297.1 Å² | collision cross section (N2) ([3]; [M+H]+): 306.2 Å² | collision cross section (N2) ([4]; [M+CH3COO]-): 294.5 Å² | collision cross section (N2) ([4]; [M+H]+): 291.6 Å²

CCCCC/C=C\C/C=C\CCCCCCCCCCCC(=O)O[C@H](COC(=O)CCCCCCC/C=C\CCCCCC)COP(=O)(O)OCCN [PE(38:3)]
collision cross section (N2) ([2]; [M-H]-): 273.3 Å² | collision cross section (N2) ([7]; [M+Na]+): 289.3 Å² | collision cross section (N2) ([3]; [M+H]+): 297.1 Å² | collision cross section (N2) ([4]; [M-H]-): 271.7 Å²

CCCCC/C=C\C/C=C\C/C=C\C/C=C\CCCCCC(=O)O[C@H](COC(=O)CCCCCCC/C=C\C/C=C\CCCCC)COP(=O)(O)OCCN [PE(40:6)]
collision cross section (N2) ([2]; [M+H]+): 284.5 Å² | collision cross section (N2) ([2]; [M+Na]+): 290.3 Å² | collision cross section (N2) ([2]; [M-H]-): 276.2 Å² | collision cross section (N2) ([7]; [M+K]+): 294.7 Å² | collision cross section (N2) ([3]; [M-H]-): 289.4 Å² | collision cross section (N2) ([4]; [M+H]+): 282.9 Å² | collision cross section (N2) ([4]; [M-H]-): 275.4 Å²

CCCCC/C=C\C/C=C\CCCCCCCCCC(=O)O[C@H](COC(=O)CCCCCCCCCCCCCC)COP(=O)(O)OC[C@@H](O)CO [PG(35:2)]
collision cross section (N2) [8]: 271.4 Å² | collision cross section (N2) ([3]; [M-H]-): 278.7 Å²

CCCCC/C=C\C/C=C\C/C=C\C/C=C\CCCCCC(=O)O[C@H](COC(=O)CCCCCCC/C=C\C/C=C\CCCCC)COP(=O)(O)OC[C@H](N)C(=O)O [PS(40:6)]
collision cross section (N2) ([2]; [M+H]+): 289.6 Å² | collision cross section (N2) ([2]; [M+Na]+): 293.9 Å² | collision cross section (N2) ([2]; [M-H]-): 284.9 Å² | collision cross section (N2) ([3]; [M-H]-): 295.4 Å² | collision cross section (N2) ([4]; [M-H]-): 284.6 Å²
